Source: patent publication US4820695A, “C-20-dihydro-deoxy-(cyclic amino)-derivatives of macrolide antibiotics” (priority 1987, dated 1989)
Converted amounts (≈) assume the structure as drawn. Where two headings read alike, the source gives them in different places.

Experiments:
[1] = test system: Haemophilus influenzae 76; assay: MIC, standard agar-dilution assay (Table IX); type: cell-based; conditions: Haemophilus influenzae 76, Ampicillin-resistant strain, read-out: MIC
[2] = test system: Streptococcus Group D 2041; assay: MIC, standard agar-dilution assay (Table IX); type: cell-based; conditions: GROUPD2041, read-out: MIC
[3] = test system: Streptococcus Group D X66; assay: MIC, standard agar-dilution assay (Table IX); type: cell-based; conditions: read-out: MIC
Klebsiella X26 = assay: MIC, standard agar-dilution assay (Table IX); type: cell-based; conditions: read-out: MIC
[4] = test system: Staphylococcus epidermidis EPI1; assay: MIC, standard agar-dilution assay (Table IX); type: cell-based; conditions: Staphylococcus epidermidis EPI1; agar-dilution; read-out: MIC
[5] = test system: Staphylococcus epidermidis 222; assay: MIC, standard agar-dilution assay (Table IX); type: cell-based; conditions: read-out: MIC
[6] = test system: Streptococcus pneumoniae Park I; assay: MIC, standard agar-dilution assay (Table IX); type: cell-based; conditions: Streptococcus pneumoniae Park I; agar-dilution; read-out: MIC
[7] = test system: Staphylococcus aureus S13E; assay: MIC, standard agar-dilution assay (Table IX); type: cell-based; conditions: Staphylococcus aureus, S13E
Escherichia coli EC14 = assay: MIC, standard agar-dilution assay (Table IX); type: cell-based; conditions: read-out: MIC
Pasteurella multocida [8] = assay: Pasteurella infection in one-day-old chicks, medicated drinking water (Table XIII); type: in vivo; conditions: Administered in the available drinking water at 2 g/gal
Experimental: (§1) Many of the C-20 modified derivatives of this invention have also shown in vivo antibacterial activity against infections induced by gram-negative bacteria. Tables XII and XIII summarize the results of tests in which illustrative compounds were evaluated against a Pasteurella infection in one-day-old chicks. The compounds were administered parenterally or orally after challenge of the chicks with Pasteurella multocida (0.1 ml of a 10^-4 dilution of a twenty-hour tryptose broth culture of an avian P. multocida given subcutaneously). In these tests, unless indicated otherwise, all non-medicated infected chicks died within 24 hours of Pasteurella challenge. In the tests summarized in Table XII, the compounds were administered by subcutaneous injection at a dosage of 30 mg/kg, 1 and 4 hours post-challenge of the chicks with P. multocida. In the tests summarized in Table XIII the compounds were administered in medicated drinking water (at a level of 2 g/gal) available from 4 to 20 hours prior to challenge of the chicks with P. multocida and during the 3 -day test period.
^a Administered in the available drinking water at a concentration of […]

Escherichia coli N10 = assay: MIC, standard agar-dilution assay (Table IX); type: cell-based; conditions: read-out: MIC
[9] = test system: Haemophilus influenzae C.L.; assay: MIC, standard agar-dilution assay (Table IX); type: cell-based; conditions: Ampicillin-sensitive strain, read-out: MIC
[10] = test system: Streptococcus pyogenes C203; assay: MIC, standard agar-dilution assay (Table IX); type: cell-based; conditions: read-out: MIC
[11] = test system: Staphylococcus aureus V41; assay: MIC, standard agar-dilution assay (Table IX); type: cell-based; conditions: Staphylococcus aureus V41, Penicillin-resistant strain, read-out: MIC
Pasteurella multocida [12] = assay: Pasteurella infection in one-day-old chicks, subcutaneous administration (Table XII); type: in vivo; conditions: Administered subcutaneously, 30 mg/kg × 2, 1 and 4 hours post-challenge
Experimental: as §1
^a Administered subcutaneously; 30 mg/kg × 2

[13] = test system: Staphylococcus aureus X400; assay: MIC, standard agar-dilution assay (Table IX); type: cell-based; conditions: Staphylococcus aureus X400, Methicillin-resistant strain, read-out: MIC
Staphyloccus aureus X1.1 = assay: MIC, standard agar-dilution assay (Table IX); type: cell-based, Staphylococcus aureus; conditions: Staphylococcus aureus, read-out: MIC
[14] = test system: Streptococcus pyogenes C203; assay: ED50 in mice experimentally infected with S. pyogenes C203 (Table XI); type: in vivo; conditions: Streptococcus pyogenes, doses given 1 and 4 hours postinfection, read-out: ED50
How it was run: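 Protective ED50 (mg/kg × 2) was determined as the dose sparing half the animals. Test compound was given twice, at 1 and 4 hours after experimental S. pyogenes C203 infection of mice.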

[15] = Titratable groups in 66% aqueous DMF (Tables XIV-XVI); type: physicochemical
From the text: ^c Run in 66% aqueous DMF
^d Run in 66% aqueous DMF

Escherichia coli TEM = assay: MIC, standard agar-dilution assay (Table IX); type: cell-based; conditions: read-out: MIC
[16] = test system: Pasteurella hemolytica 22C; assay: MIC, broth-dilution microtiter test (Table X); type: cell-based; conditions: read-out: MIC
From the text: (§2) The MIC's in Table X were obtained using conventional broth-dilution microtiter tests.

[17] = test system: Pasteurella multocida 17E; assay: MIC, broth-dilution microtiter test (Table X); type: cell-based; conditions: Bovine isolate, read-out: MIC
From the text: as §2

Staphylococcus aureus = assay: MIC, broth-dilution microtiter test (Table X); type: cell-based; conditions: read-out: MIC
From the text: as §2

Mycoplasma synoviae 40A = assay: MIC, broth-dilution microtiter test (Table X); type: cell-based; conditions: Mycoplasmopsis synoviae, read-out: MIC
From the text: as §2

Streptococcus sp. 19F = assay: MIC, broth-dilution microtiter test (Table X); type: cell-based; conditions: read-out: MIC
From the text: as §2

[18] = test system: Pasteurella multocida 60A; assay: MIC, broth-dilution microtiter test (Table X); type: cell-based; conditions: Avian isolate, read-out: MIC
From the text: as §2

[19] = test system: Mycoplasma hyopneumoniae S5972; assay: MIC, broth-dilution microtiter test (Table X); type: cell-based; conditions: Mesomycoplasma hyopneumoniae, read-out: MIC
From the text: as §2

[20] = test system: Mycoplasma gallisepticum 29C; assay: MIC, broth-dilution microtiter test (Table X); type: cell-based; conditions: Mycoplasmoides gallisepticum, read-out: MIC
From the text: as §2

Mycoplasma hyorhinis 29E = assay: MIC, broth-dilution microtiter test (Table X); type: cell-based; conditions: read-out: MIC
From the text: as §2

[21] = Titratable groups (first value)

Compound | MIC [1] [µg/mL] | MIC [2] [µg/mL] | MIC [3] [µg/mL] | MIC (Klebsiella X26) [µg/mL] | MIC [4] [µg/mL] | MIC [5] [µg/mL] | MIC [6] [µg/mL] | MIC [7] [µg/mL] | MIC (Escherichia coli EC14) [µg/mL] | Number of Deaths/Number Treated (Pasteurella multocida [8]) | MIC (Escherichia coli N10) [µg/mL] | MIC [9] [µg/mL] | MIC [10] [µg/mL] | MIC [11] [µg/mL] | Number of Deaths/Number Treated (Pasteurella multocida [12]) | MIC [13] [µg/mL] | MIC (Staphyloccus aureus X1.1) [µg/mL] | MIC (Escherichia coli TEM) [µg/mL] | MIC [16] [µg/mL] | MIC [17] [µg/mL] | other results
CCC1OC(=O)CC(O)C(C)C(OC2OC(C)C(O)C(N(C)C)C2O)C(CCN2CCCCCC2)CC(C)C(=O)C=CC(C)=CC1COC1OC(C)C(O)C(OC)C1OC (centres unmarked) [Compound D5, 20-DH-DO-20-(Hexahydroazepin-1-yl)desmycosin] | 128 (≈ 150 µM) | 8 (≈ 9.36 µM) | 8 (≈ 9.36 µM) | > 128 | 0.5 (≈ 0.585 µM) | 0.12 (≈ 0.14 µM) | 0.5 (≈ 0.585 µM) | 0.25 (≈ 0.292 µM) | 4 (≈ 4.68 µM) | 2/10 | 128 (≈ 150 µM) | 16 (≈ 18.7 µM) | 0.5 (≈ 0.585 µM) | 0.5 (≈ 0.585 µM) | 0/10 | 1 (≈ 1.17 µM) | 0.5 (≈ 0.585 µM) | 8 (≈ 9.36 µM) | 1.56 (≈ 1.82 µM) | 3.12 (≈ 3.65 µM) | ED50 ([14]; C203, Oral): 50 mg/kg; ED50 ([14]; C203, sc, Subcutaneous): 1.3 mg/kg; pKa ([15]; Titratable groups): 9.6; pKa [15, 21]: 7.9; MIC (Staphylococcus aureus): 1.56 µg/mL (≈ 1.82 µM); MIC (Mycoplasma synoviae 40A): 0.39 µg/mL (≈ 0.456 µM); MIC (Streptococcus sp. 19F): 3.12 µg/mL (≈ 3.65 µM); MIC [18]: 3.12 µg/mL (≈ 3.65 µM); MIC [19]: 1.56 µg/mL (≈ 1.82 µM); MIC [20]: 1.56 µg/mL (≈ 1.82 µM); MIC (Mycoplasma hyorhinis 29E): 50 µg/mL (≈ 58.5 µM)
CCC1OC(=O)CC(O)C(C)C(OC2OC(C)C(O)C(N(C)C)C2O)C(CCN2C3CCCCC3C3CCCCC32)CC(C)C(=O)C=CC(C)=CC1COC1OC(C)C(O)C(OC)C1OC (centres unmarked) [Compound D25, 20-DH-DO-20-(Dodecahydrocarbazol-9-yl) desmycosin] | 8 (≈ 8.55 µM) | 4 (≈ 4.28 µM) | 4 (≈ 4.28 µM) | 128 (≈ 137 µM) | 0.5 (≈ 0.535 µM) | 0.25 (≈ 0.267 µM) | 0.5 (≈ 0.535 µM) | 0.5 (≈ 0.535 µM) | 128 (≈ 137 µM) | 7/10 | 128 (≈ 137 µM) | 16 (≈ 17.1 µM) | 0.25 (≈ 0.267 µM) | 0.5 (≈ 0.535 µM) | 0/10 | 1 (≈ 1.07 µM) | 0.5 (≈ 0.535 µM) | 32 (≈ 34.2 µM) | 3.12 (≈ 3.34 µM) | 12.5 (≈ 13.4 µM) | pKa ([15]; Titratable groups): 9.95; pKa [15, 21]: 7.95; MIC (Staphylococcus aureus): 3.12 µg/mL (≈ 3.34 µM); MIC (Mycoplasma synoviae 40A): 0.097 µg/mL (≈ 0.104 µM); MIC (Streptococcus sp. 19F): 3.12 µg/mL (≈ 3.34 µM); MIC [18]: 12.5 µg/mL (≈ 13.4 µM); MIC [19]: 0.39 µg/mL (≈ 0.417 µM); MIC [20]: 0.39 µg/mL (≈ 0.417 µM); MIC (Mycoplasma hyorhinis 29E): 12.5 µg/mL (≈ 13.4 µM)
CCC1OC(=O)CC(O)C(C)C(OC2OC(C)C(O)C(N(C)C)C2O)C(CCN2CCC3(CC2)OCCO3)CC(C)C(=O)C=CC(C)=CC1COC1OC(C)C(O)C(OC)C1OC (centres unmarked) [Compound D28, 20-DH-DO-20-[4-(ethylenedioxy)piperidin-1-yl]desmycosin] | 32 (≈ 35.6 µM) | 8 (≈ 8.9 µM) | 8 (≈ 8.9 µM) | 64 (≈ 71.2 µM) | 2 (≈ 2.22 µM) | 1 (≈ 1.11 µM) | 2 (≈ 2.22 µM) | 2 (≈ 2.22 µM) | > 128 | 7/10 | > 128 | 32 (≈ 35.6 µM) | 0.5 (≈ 0.556 µM) | 2 (≈ 2.22 µM) | 0/10 | 4 (≈ 4.45 µM) | 2 (≈ 2.22 µM) | 64 (≈ 71.2 µM) | 25 (≈ 27.8 µM) | 6.25 (≈ 6.95 µM) | ED50 ([14]; C203, Oral): 77 mg/kg; ED50 ([14]; C203, sc, Subcutaneous): 0.75 mg/kg; MIC (Staphylococcus aureus): 3.12 µg/mL (≈ 3.47 µM); MIC (Mycoplasma synoviae 40A): 0.195 µg/mL (≈ 0.217 µM); MIC (Streptococcus sp. 19F): 3.12 µg/mL (≈ 3.47 µM); MIC [18]: 25 µg/mL (≈ 27.8 µM); MIC [19]: 1.56 µg/mL (≈ 1.74 µM); MIC [20]: 0.097 µg/mL (≈ 0.108 µM); MIC (Mycoplasma hyorhinis 29E): 25 µg/mL (≈ 27.8 µM)
